Measured values taken from US4085134A, “Amino-phosphonic-sulfonic acids” (Petrolite Corporation, priority 1974, dated 1978).
Structures can show the parent of a compound that is named as a salt.

Columns and labels:
[1] = powerful sequesterants; background statement; cited from earlier work
[2] = Calcium Scale Inhibition Test; conditions: 180° F, samples at 2 and 4 hour periods
Protocol: Calcium Scale Inhibition Test
The procedure utilized to determine the effectiveness of scale inhibitors in regard to calcium scale is as follows:
Several 50 ml. samples of a 0.04 sodium bicarbonate solution are placed in 100 ml. bottles. To these solutions is added the inhibitor in various known concentrations. 50 ml. samples of a 0.02 M CaCl2 solution are then added.
A total hardness determination is then made on the 50-50 mixture utilizing the well known Schwarzenbach titration. The samples are placed in a water bath and heated at 180° F. 10 ml. samples are taken from each bottle at 2 and 4 hour periods. These samples are filtered through millipore filters and the total hardness of the filtrates are determined by titration.

Row | Compound | % Inhibition (calcium scale inhibition) ([2]; 100 ppm) | % Inhibition (calcium scale inhibition) ([2]; 50 ppm) | % Inhibition (calcium scale inhibition) ([2]; 10 ppm) | further results
1 | O=C(O)CN(CCN(CC(=O)O)CC(=O)O)CC(=O)O [ethylenediamine tetracetic acid salts, ethylenediamine tetracetic acid] |  |  |  | threshold activities [1]: no threshold activities
2 | O=P(O)(O)CN(CCCS(=O)(=O)O)C1CCCCC1 [Example 1] | 86% |  |  | 
3 | O=P(O)(O)CN(CCCS(=O)(=O)O)CCN(CCCS(=O)(=O)O)CP(=O)(O)O [Example 11] | 100% | 95% |  | 
4 | O=P(O)(O)CN(CCCS(=O)(=O)O)CCN(CCN(CP(=O)(O)O)CP(=O)(O)O)CP(=O)(O)O [Example 14] | 100% |  | 66% | 
5 | O=P(O)(O)CN(CCCS(=O)(=O)O)CCN(CCN(CCCS(=O)(=O)O)CP(=O)(O)O)CP(=O)(O)O [Example 15] |  | 95% | 42% | 
6 | CCCCCCCCN(CCCS(=O)(=O)O)CP(=O)(O)O [Example 4] | 24% |  |  | % Inhibition (calcium scale inhibition) ([2]; 200 ppm): 60%
